Values after ≈ are worked out from the molar mass of the structure shown.
Experiments:
[1] = test system: Geobacillus stearothermophilus ATCC 7953; assay: Antibacterial spectrum test, paper disk assay; type: cell-based; settings: 50 μL of 1000 γ solution in methanol, LB agar, 60° C., 18 hours
Method: The antibacterial activity of HK-1 was assayed using a paper disk against the following bacterial bodies. A piece of ice was taken out of a glycerol stock of G. stearothermophilus stored at -80° C. and […] inoculated on the LB agar culture medium (see Example 1) with a toothpick. This was incubated at 60° C. for 18 hours. After the incubation, 1⁄2 platinum loop of the culture was harvested and suspended in 500 μL of sterile water. The bacterial suspension was diluted 10-fold with sterile water. Onto a LB agar culture medium, 100 μL of the diluted suspension was dropped and spread until it was dried up. A piece of paper disk was placed on a filter paper, onto which 50 μL of a HK-1 solution adjusted to 1000 γ with methanol was dropped and dried. Then the disk was placed on the agar culture medium coated with the bacterial body. After incubation at 60° C. for 18 hours, the diameter of the inhibition ring was measured.

[2] = test system: Geobacillus stearothermophilus 111499 MERCK (ATCC 7953); assay: Measurement of minimum inhibitory concentration, dilution method with liquid culture medium; type: cell-based; settings: ATCC7953, LB liquid medium, 60° C., 135 rpm, 18 hours, visual observation and OD600
From the text: The minimum inhibitory concentration (MIC) is one of the antibiotic susceptibility tests, and means the minimum concentration of an antimicrobial substance at which the visible growth of a microorganism can be inhibited. In the research field, the MIC measurement is used, for example, to compare the effects of a new antibiotic substance and a conventional substance, or to examine actions on several strains, and is regarded as an important criterion for evaluating antibiotic substances. The MIC of “HK-1” which was obtained hereunder as the antibacterial active substance was measured using the dilution method with a liquid culture medium.
A piece of ice out of a glycerol stock of G. stearothermophilus stored at −80° C. was planarly inoculated on the LB agar culture medium with a toothpick. This was incubated at 60° C. for 18 hours. One (1) cm^2 of the culture medium was excavated with a toothpick, placed into a long test tube containing 10 mL of a liquid LB culture medium, and subjected to a shaking culture at 60° C., and 300 rpm, for 18 hours. The culture solution was diluted with sterile water to about McF standard No. 1.
Two (2) mg of HK-1 was weighed out into a 2 mL Eppendorf tube using an electric balance. To this Eppendorf tube, 2 mL of methanol was added to dissolve the HK-1 to form a […] solution. The solution was filtrated through a sterilized […] filter. […]

[3] = pH stability by HPLC analysis; type: physicochemical; settings: methanol solution 1000 γ
Method: Into a 50-mL Falcon tube, 20 mg of HK-1 was weighed out using an electric balance, and therein 20 mL of methanol (1000 γ) was added followed by gentle stirring. Each 3.3 mL was aliquoted to totally two 15-mL Falcon tubes. To one of them 20 μL of 1 N sodium hydroxide was added followed by gentle stirring. The pH was tested with a pH test paper. Ten (10) μL of each sample was subjected to HPLC. The HPLC analysis conditions are as follows. Column: CAPCELL PAK Cis 5 μm, 4.6 mm 1. D×150 mm Mobile phase A: 0.1% aqueous solution of trifluoroacetic acid Mobile phase B: acetonitrile Temperature of thermostatic chamber for column: 40° C. Flow velocity: 1 mL/min UV: 254 nm Elution method: concentration gradient • 0 min to 18 min, B concentration 50% to 100% • 18.1 min to 23 min, B concentration 100% • 23.1 min to 25 min, B concentration 50%

[4] = test system: Geobacillus stearothermophilus ATCC 7953; assay: Heat resistance test A, antibacterial activity as index; type: cell-based; settings: 1000 γ solution, pH adjusted to 9, 98° C. for 5 min; FIG. 4-1
Method: (§1) Examples of a typical test for measuring the stability of a compound include pH stability test, as well as heat resistance test, and storage test. This information is also regarded as important in evaluating the compound as described above. Using the sample of HK-1 prepared in the above “3. Antibacterial activity test in changing pH”, experiments were carried out to examine whether the compound is stable or not using G. stearothermophilus and B. subtilis guided by the antibacterial activity as the index.
(§2) Three hundred (300) μL of the 1000 γ HK-1 solution (pH 9, and pH not adjusted) prepared in the above “3. Antibacterial activity test in changing pH” was dispensed into a 1 mL microtube. The opening of the tube was closed hermetically with parafilm and heated in the bath at 98° C. for 5 min. An assay was performed using the culture medium for assaying antibacterial activity prepared in “3. Antibacterial activity test in changing pH” above.

[5] = test system: Bacillus subtilis NBRC 3134^T; assay: as above; type: cell-based; settings: 1000 γ solution, pH adjusted to 9, 98° C. for 5 min; FIG. 4-1
Method: as §1, §2

In the case of `COc1cc(OOc2cc(OC)c3c(c2-c2c(O)c(Cl)c(C)c4c2C(O)c2c(Cl)c(O)cc(O)c2C4=O)C(OC2OC(C)C(O)C2O)c2c(Cl)c(OC)c(Cl)c(C)c2C3=O)c(-c2c(O)c(Cl)c(C)c3c2C(O)c2c(Cl)c(O)cc(O)c2C3=O)c2c1C(=O)c1c(C)c(Cl)c(OC)c(Cl)c1C2OC1OC(C)C(O)C1O` (stereo not drawn) [HK-1], the inhibition ring diameter [1] is reported as 34.0 mm, the MIC [2] is reported as 0.78 µg/mL (≈ 0.474 µM) and the “pH stability (degradation peak in HPLC analysis)” value ([3]; pH adjusted to 9 with 1 N sodium hydroxide) is reported as “stable with no recognizable degradation peak”. For the same compound, the “pH stability (degradation peak in HPLC analysis)” value ([3]; pH not adjusted) was “stable with no recognizable degradation peak”, the “antibacterial effect after heating at high temperature” value [4] was “the antibacterial effect was not lost” and the “antibacterial effect after heating at high temperature” value [5] was “the antibacterial effect was not lost”.

Reference: patent US20220127298A1, “THERMOSPOROTHRIX HAZAKENSIS-DERIVED ANTIBACTERIALLY ACTIVE SUBSTANCE” (KENNAN EISEI KOGYO CO., LTD., priority 2019, published 2022)
